Values after ≈ are worked out from the molar mass of the structure shown. Like-named read-outs stand apart in the source and are kept apart here.

Results on 18 molecules are retold here after publication PMC6130710 (Pharmaceutical Biology, 2017).

Assay [1] can be described thus: DPPH radical scavenging activity. The procedure:
The antioxidant activity of the extract was evaluated through the free radical scavenging effect on 2,2′-diphenyl-1-picrylhydrazyl (DPPH) (Sigma) radical as previously reported (Yen & Hsieh [1997]) with slight modifications. 100 μL of 0.10 mM DPPH ethanolic solution was added to 20 μL of the sample with various concentrations. The mixture was thoroughly mixed and kept in the dark for 30 min. The absorbance was measured at 517 nm using a Sunrise microplate reader spectrophotometer.
(The DPPH test is a chemical assay of radical scavenging.)

Assay [2] concerns the target T1, α-Glucosidase (EC 3.2.1.20) from Saccharomyces cerevisiae (Baker's yeast) (Saccharomyces cerevisiae, UniProt P53341).
T1 construct: purchased Sigma-Aldrich (St. Louis, MO)
The experiment in a line: biochemical. The procedure:
(§1) 1 D and 2 D NMR spectra were recorded on a Bruker 400 AVANCE spectrometer, and the chemical shifts were reported in parts per million (ppm) using tetramethylsilane (TMS) as the internal standard. Melting points were determined on a Fisher-Johns Melting Point apparatus. Adsorbents such as silica gel 60 (Merck) were used for column and radial (chromatotron model 7924 T, Harrison Research) chromatographies. Merck silica gel 60F254 plates were used for TLC. HRESIMS spectra were obtained using a Bruker MICROTOF model mass spectrometer. UV-visible absorption spectra were recorded using a UV-2550 (SHIMADZU) UV-Vis spectrometer (Shimadzu, Kyoto, Japan). α-Glucosidase (EC 3.2.1.20) from Saccharomyces cerevisiae and 4-nitrophenyl-α-D-glucopyranoside (p-NPG) were obtained from Sigma-Aldrich (St. Louis, MO). […] Rat intestinal acetone powder was supplied by Sigma Aldrich.
The evaluation of the inhibitory activity of all compounds against yeast and rat intestinal (maltase and sucrase) α-glucosidases was applied from a previous procedure (Damsud et al. [2013]). The inhibitory effect against yeast α-glucosidase was determined using the protocol previously described. Briefly, 10 μL of sample was mixed with α-glucosidase (0.1 U/mL) in 1 mM phosphate buffer (pH 6.9) and incubated at 37 °C for 10 min. The reaction mixture was added with 1 mM p-nitrophenyl-α-D-glucopyranoside (PNPG, 50 μL) followed by additional 20 min incubation. p-Nitrophenoxide liberated from the reaction was quantified by a microplate reader (UV 405 nm) after the addition of 1 M Na2CO3 (100 μL). The percent inhibition was deduced using the following equation. (A0-A1)/A0×100 where A1 and A0 are absorbances with and without the sample, respectively.

The target of assay [3] is rat intestinal α-glucosidase (maltase). The experiment in a line: rat intestinal α-glucosidase (maltase) inhibition assay. The format is biochemical. The conditions noted are these: rat intestine; for IC50: compounds, Table 2. The procedure: 1 D and 2 D NMR spectra were recorded on a Bruker 400 AVANCE spectrometer, and the chemical shifts were reported in parts per million (ppm) using tetramethylsilane (TMS) as the internal standard. Melting points were determined on a Fisher-Johns Melting Point apparatus. Adsorbents such as silica gel 60 (Merck) were used for column and radial (chromatotron model 7924 T, Harrison Research) chromatographies. Merck silica gel 60F254 plates were used for TLC. HRESIMS spectra were obtained using a Bruker MICROTOF model mass spectrometer. UV-visible absorption spectra were recorded using a UV-2550 (SHIMADZU) UV-Vis spectrometer (Shimadzu, Kyoto, Japan). α-Glucosidase (EC 3.2.1.20) from Saccharomyces cerevisiae and 4-nitrophenyl-α-D-glucopyranoside (p-NPG) were obtained from Sigma-Aldrich (St. Louis, MO). Acarbose was obtained from Bayer Vitol Leverkusen, Germany. Rat intestinal acetone powder was supplied by Sigma Aldrich.
(§2) Moreover, previous procedure (Damsud et al. [2013]) was also applied to determine inhibitory activity of isolated compounds against intestinal α-glucosidases (maltase and sucrase). Briefly, 10 μL of the test sample and substrate solution (maltose: 10 mM, 20 μL; sucrose: 100 mM, 20 μL, respectively) in 0.1 M phosphate buffer (pH 6.9) were incubated at 37 °C (20 min for maltase and 60 min for sucrase). The mixture was discontinued in boiling water for 10 min, and glucose released from the reaction was converted to quinoneimine using a commercial Glu Kit (Human, Germany). The absorbance of final product was determined at 503 nm, and percent inhibition was calculated using the aforementioned equation.

In assay [4] the target is T2, rat intestinal α-glucosidase (sucrase) (Rattus norvegicus, UniProt P23739).
T2 construct: tissue Sigma Aldrich; host or cells: rat intestinal acetone powder
In words: rat intestinal α-glucosidase (sucrase) inhibition assay. The note with it: rat intestine; compounds, Table 2. It is filed as biochemical. The procedure:
as §1, §2

[5] abbreviates: compounds, Table 2, read-out: IC50 Baker's yeast α-glucosidase.
The mark [6] stands for this setting: IC50 Baker's yeast α-glucosidase, compounds, Table 2.

T1 sequence (P53341 whole entry): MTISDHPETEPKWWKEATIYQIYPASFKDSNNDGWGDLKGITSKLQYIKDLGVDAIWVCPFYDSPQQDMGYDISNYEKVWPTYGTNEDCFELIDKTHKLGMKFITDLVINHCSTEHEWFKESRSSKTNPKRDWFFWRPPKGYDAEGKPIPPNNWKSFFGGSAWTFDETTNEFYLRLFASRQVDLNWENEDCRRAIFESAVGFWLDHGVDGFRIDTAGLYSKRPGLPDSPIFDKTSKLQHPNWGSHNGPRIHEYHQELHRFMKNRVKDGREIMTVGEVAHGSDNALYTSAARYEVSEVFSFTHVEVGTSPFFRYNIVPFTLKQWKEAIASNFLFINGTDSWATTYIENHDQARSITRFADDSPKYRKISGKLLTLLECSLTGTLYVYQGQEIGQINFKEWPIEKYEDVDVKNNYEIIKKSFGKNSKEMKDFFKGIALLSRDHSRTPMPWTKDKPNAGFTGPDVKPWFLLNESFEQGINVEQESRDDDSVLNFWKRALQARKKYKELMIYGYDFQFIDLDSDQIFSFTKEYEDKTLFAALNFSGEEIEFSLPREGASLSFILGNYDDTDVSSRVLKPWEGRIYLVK
T2 sequence (P23739 1014-1841 limits assumed): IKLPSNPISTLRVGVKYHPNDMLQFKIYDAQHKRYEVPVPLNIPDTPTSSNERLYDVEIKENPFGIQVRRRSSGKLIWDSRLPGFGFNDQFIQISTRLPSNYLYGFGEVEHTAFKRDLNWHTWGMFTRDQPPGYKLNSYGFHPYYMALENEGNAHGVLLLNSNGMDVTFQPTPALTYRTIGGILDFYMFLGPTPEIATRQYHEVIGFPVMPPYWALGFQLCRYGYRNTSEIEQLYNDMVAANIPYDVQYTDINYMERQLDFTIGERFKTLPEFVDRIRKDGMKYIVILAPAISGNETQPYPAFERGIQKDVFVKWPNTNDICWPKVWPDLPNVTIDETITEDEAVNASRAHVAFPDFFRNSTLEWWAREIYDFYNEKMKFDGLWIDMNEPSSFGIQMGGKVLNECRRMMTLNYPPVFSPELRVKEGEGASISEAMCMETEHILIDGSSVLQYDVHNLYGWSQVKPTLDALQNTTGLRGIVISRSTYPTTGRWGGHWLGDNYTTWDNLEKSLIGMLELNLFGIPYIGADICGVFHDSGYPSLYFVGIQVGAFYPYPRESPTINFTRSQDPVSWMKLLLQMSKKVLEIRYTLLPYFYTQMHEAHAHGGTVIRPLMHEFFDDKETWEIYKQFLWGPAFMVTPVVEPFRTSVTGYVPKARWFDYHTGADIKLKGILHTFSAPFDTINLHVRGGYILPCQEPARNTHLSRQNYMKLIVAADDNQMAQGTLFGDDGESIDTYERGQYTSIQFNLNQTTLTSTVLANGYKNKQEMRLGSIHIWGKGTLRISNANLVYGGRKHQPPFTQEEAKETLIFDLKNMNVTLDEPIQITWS
T2 sequence (P23739 1-1013 partner limits assumed): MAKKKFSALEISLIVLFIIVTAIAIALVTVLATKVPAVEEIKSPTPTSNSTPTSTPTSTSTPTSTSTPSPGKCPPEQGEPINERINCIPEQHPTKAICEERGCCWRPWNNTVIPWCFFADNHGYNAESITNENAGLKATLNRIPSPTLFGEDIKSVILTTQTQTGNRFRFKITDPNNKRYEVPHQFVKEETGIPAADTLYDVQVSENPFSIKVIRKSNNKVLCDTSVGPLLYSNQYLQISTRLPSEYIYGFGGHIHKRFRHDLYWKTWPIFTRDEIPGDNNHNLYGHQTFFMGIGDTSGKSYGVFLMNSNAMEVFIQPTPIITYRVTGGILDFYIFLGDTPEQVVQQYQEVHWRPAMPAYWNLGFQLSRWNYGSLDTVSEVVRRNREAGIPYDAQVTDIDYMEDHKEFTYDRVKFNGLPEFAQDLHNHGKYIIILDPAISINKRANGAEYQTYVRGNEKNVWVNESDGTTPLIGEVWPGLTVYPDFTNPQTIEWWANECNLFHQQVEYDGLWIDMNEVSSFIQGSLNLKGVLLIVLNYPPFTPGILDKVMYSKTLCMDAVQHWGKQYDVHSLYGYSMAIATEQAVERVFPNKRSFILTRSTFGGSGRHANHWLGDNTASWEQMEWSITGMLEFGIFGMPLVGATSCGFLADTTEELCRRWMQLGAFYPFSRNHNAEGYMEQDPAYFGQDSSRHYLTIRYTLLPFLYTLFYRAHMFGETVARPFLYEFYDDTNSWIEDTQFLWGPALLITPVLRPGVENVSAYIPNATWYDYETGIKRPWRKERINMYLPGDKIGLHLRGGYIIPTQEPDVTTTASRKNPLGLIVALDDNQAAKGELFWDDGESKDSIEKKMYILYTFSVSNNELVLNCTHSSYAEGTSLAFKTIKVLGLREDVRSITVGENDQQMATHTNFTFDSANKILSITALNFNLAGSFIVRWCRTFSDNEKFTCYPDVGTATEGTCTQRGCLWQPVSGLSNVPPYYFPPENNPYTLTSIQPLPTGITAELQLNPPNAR

`Cc1cc(C(C)(C)C)c(O)c(C(C)(C)C)c1` [BHT, reference compound]: in assay [1] (compounds, Table 2), the IC50 (commonly the concentration that inhibits the measured activity by half) worked out at 328 ± 0.56 µM. Also, the “IC50 DPPH” value in assay [1] (fractions A-G, Table 1) was 72 ± 350 µg/mL (≈ 327 µM).

Regarding `C=C(C)[C@@H]1CC[C@]2(C(=O)N(C(=O)NC3CCCCC3)C3CCCCC3)CC[C@]3(C)[C@H](CC[C@@H]4[C@@]5(C)CC[C@H](OC(=O)CCC)C(C)(C)[C@@H]5CC[C@]43C)[C@@H]12` [Compound 2j], the IC50 in assay [2] (setting [5]) is over 0.6 mM; in assay [3], over 3000 µM; in assay [4], over 3000 µM; in assay [1] (compounds, Table 2), over 10000 µM.

In the case of `COc1cc([C@H]2c3c(cc(OC)c(O)c3OC)C[C@@H](CO)[C@@H]2CO[C@@H]2O[C@H](CO)[C@@H](O)[C@H](O)[C@H]2O)cc(OC)c1O` [Compound 4, (+)-lyoniresinol-3α-O-β-D-glucopyranoside], the IC50 was over 0.6 mM in assay [2] (setting [5]); 373 ± 1.05 µM in assay [3]; 1214 ± 2.01 µM in assay [4]; 3795 ± 0.42 µM in assay [1] (compounds, Table 2).

In the case of `C=C(C)[C@@H]1CC[C@]2(C(=O)O)CC[C@]3(C)[C@H](CC[C@@H]4[C@@]5(C)CC[C@H](OC(=O)CCC)C(C)(C)[C@@H]5CC[C@]43C)[C@@H]12` [Compound 2c], the IC50 in assay [2] (setting [5]) was 0.158 ± 0.00122 mM; in assay [3] it was over 3000 µM; in assay [4], over 3000 µM; in assay [1] (compounds, Table 2), over 10000 µM.

Turning to `C[C@H]1O[C@H](O[C@H]2[C@H](O)[C@@H](O)[C@@H](O[C@H]3[C@H](O)[C@@H](O)C(O)O[C@@H]3CO)O[C@@H]2CO)[C@H](O)[C@@H](O)[C@@H]1N[C@H]1C=C(CO)[C@@H](O)[C@H](O)[C@H]1O` (some centres unmarked) [Acarbose, reference compound], in assay [3], half-maximal inhibition (IC50) was put at 7.9 ± 0.94 µM. Besides, the “IC50 Maltase” value in assay [3] (fractions A-G, Table 1) turned out to be 5.1 ± 940 µg/mL (≈ 7.9 µM).

Regarding `C=C(C)[C@@H]1CC[C@]2(C(=O)N(C(=O)NC3CCCCC3)C3CCCCC3)CC[C@]3(C)[C@H](CC[C@@H]4[C@@]5(C)CC[C@H](OC(C)=O)C(C)(C)[C@@H]5CC[C@]43C)[C@@H]12` [Compound 2h], the IC50 was 0.281 ± 0.00089 mM in assay [2] (setting [5]); over 3000 µM in assay [3]; over 3000 µM in assay [4]; over 10000 µM in assay [1] (compounds, Table 2).

Consider `C=C(C)[C@@H]1CC[C@]2(C(=O)N(C(=O)NC3CCCCC3)C3CCCCC3)CC[C@]3(C)[C@H](CC[C@@H]4[C@@]5(C)CC[C@H](OC(=O)CCCC)C(C)(C)[C@@H]5CC[C@]43C)[C@@H]12` [Compound 2k], for which the IC50 is over 0.6 mM in assay [2] (setting [5]); over 3000 µM in assay [3]; over 3000 µM in assay [4]; over 10000 µM in assay [1] (compounds, Table 2).

In the case of `C[C@@H]1O[C@@H](O[C@H]2[C@H](Oc3c(-c4ccc(O)c(O)c4)oc4cc(O)cc(O)c4c3=O)O[C@@H](C)[C@H](O)[C@H]2O)[C@H](O)[C@H](O)[C@H]1O` [Compound 6, horridin], the IC50 is over 0.6 mM in assay [2] (setting [6]); over 3000 µM in assay [3]; over 3000 µM in assay [4]; 42.8 ± 0.83 µM in assay [1] (compounds, Table 2).

Consider `C=C(C)[C@@H]1CC[C@]2(C(=O)N(C(=O)NC3CCCCC3)C3CCCCC3)CC[C@]3(C)[C@H](CC[C@@H]4[C@@]5(C)CC[C@H](OC(=O)CC)C(C)(C)[C@@H]5CC[C@]43C)[C@@H]12` [Compound 2i], for which the IC50 in assay [2] (setting [5]) is 0.368 ± 0.00164 mM; in assay [3], over 3000 µM; in assay [4], over 3000 µM; in assay [1] (compounds, Table 2), over 10000 µM.

In assay [1] (compounds, Table 2), `O=C1O[C@H]([C@@H](O)CO)C(O)=C1O` [Vitamin C, reference compound] showed an IC50 of 158 ± 1.9 µM. Further, in assay [1] (fractions A-G, Table 1), the “IC50 DPPH” value was 28 ± 1560 µg/mL (≈ 159 µM).

As for `C=C(C)[C@@H]1CC[C@]2(C(=O)O)CC[C@]3(C)[C@H](CC[C@@H]4[C@@]5(C)CC[C@H](OC(=O)CCCCC)C(C)(C)[C@@H]5CC[C@]43C)[C@@H]12` [Compound 2e], the half-inhibitory concentration (IC50) was 0.0721 ± 0.00154 mM in assay [2] (setting [5]); over 3000 µM in assay [3]; over 3000 µM in assay [4]; over 10000 µM in assay [1] (compounds, Table 2).

Regarding `C=C(C)[C@@H]1CC[C@]2(C(=O)N(C(=O)NC3CCCCC3)C3CCCCC3)CC[C@]3(C)[C@H](CC[C@@H]4[C@@]5(C)CC[C@H](OC(=O)CCCCC)C(C)(C)[C@@H]5CC[C@]43C)[C@@H]12` [Compound 2l], the IC50 was over 0.6 mM in assay [2] (setting [5]); over 3000 µM in assay [3]; over 3000 µM in assay [4]; over 10000 µM in assay [1] (compounds, Table 2).

As for `C=C(C)[C@@H]1CC[C@]2(C(=O)O)CC[C@]3(C)[C@H](CC[C@@H]4[C@@]5(C)CC[C@H](OC(C)=O)C(C)(C)[C@@H]5CC[C@]43C)[C@@H]12` [Compound 2a], the IC50 was 0.0281 ± 0.00076 mM in assay [2] (setting [5]); over 3000 µM in assay [3]; over 3000 µM in assay [4]; over 10000 µM in assay [1] (compounds, Table 2).

Turning to `C=C(C)[C@@H]1CC[C@]2(C(=O)O)CC[C@]3(C)[C@H](CC[C@@H]4[C@@]5(C)CC[C@H](OC(=O)c6ccccc6)C(C)(C)[C@@H]5CC[C@]43C)[C@@H]12` [Compound 2f], the IC50 in assay [2] (setting [5]) is 0.0731 ± 0.00096 mM; in assay [3], over 3000 µM; in assay [4] it was over 3000 µM; in assay [1] (compounds, Table 2) it was over 10000 µM.

Regarding `C[C@@H]1O[C@@H](O[C@H]2[C@H](Oc3c(-c4ccc(O)cc4)oc4cc(O)cc(O)c4c3=O)O[C@@H](C)[C@H](O)[C@H]2O)[C@H](O)[C@H](O)[C@H]1O` [Compound 5, kaempferol-3-O-α-L-rhamnopyranosyl-(1→2)-α-L-rhamnopyrano side], the IC50 was over 0.6 mM in assay [2] (setting [6]); over 3000 µM in assay [3]; over 3000 µM in assay [4]; 6019 ± 1.36 µM in assay [1] (compounds, Table 2).

As for `C=C(C)[C@@H]1CC[C@]2(C)CC[C@]3(C)[C@H](CC[C@@H]4[C@@]5(C)CC[C@H](O)C(C)(C)[C@@H]5CC[C@]43C)[C@@H]12` [Compound 1, lupeol], the IC50 was 0.0372 ± 0.00022 mM in assay [2] (setting [6]); 0.037 mM in assay [2] (experimental IC50 yeast α-glucosidase, restated in mM in docking section); over 3000 µM in assay [3]; over 3000 µM in assay [4]; over 10000 µM in assay [1] (compounds, Table 2). The “IC50 DPPH” value in assay [1] (compounds, Table 2) is listed as “no activity”.

`C=C(C)[C@@H]1CC[C@]2(C(=O)O)CC[C@]3(C)[C@H](CC[C@@H]4[C@@]5(C)CC[C@H](OC(=O)CC)C(C)(C)[C@@H]5CC[C@]43C)[C@@H]12` [Compound 2b]: the IC50 is 0.0433 ± 0.00019 mM in assay [2] (setting [5]); over 3000 µM in assay [3]; over 3000 µM in assay [4]; over 10000 µM in assay [1] (compounds, Table 2).

Turning to `C=C(C)[C@@H]1CC[C@]2(C(=O)O)CC[C@]3(C)[C@H](CC[C@@H]4[C@@]5(C)CC[C@H](OC(=O)CCCC)C(C)(C)[C@@H]5CC[C@]43C)[C@@H]12` [Compound 2d], the IC50 in assay [2] (setting [5]) was 0.269 ± 0.00322 mM; in assay [3] it was over 3000 µM; in assay [4] it was over 3000 µM; in assay [1] (compounds, Table 2) it was over 10000 µM.
